Values quoted from earlier work, collected in US12270126B2, “Wound dressing” (University of Central Oklahoma, priority 2019, dated 2025).

Columns and labels:
[1] = test system: Methicillin-resistant S. aureus (MRSA)
[2] = test system: Bacillus subtilis (B. subtilis)

Measured: inhibitory effect on microorganism

Cc1ccc(C(C)C)c(O)c1 [thymol]
inhibitory effect: [1] | E. coli | [2] | Saccharomyces cerevisiae

Cc1ccc(C(C)C)cc1O [carvacrol]
inhibitory effect: [1] | E. coli | [2] | Saccharomyces cerevisiae
